Experimental findings from patent US4665157A, “Peptide antagonists of neurokinin B” (priority 1985, dated 1987) are described below.

Where a SMILES comes first, the peptide text is derived from it. [ ]: non-standard residue; d: D form. Nle = CCCC[C@H](N)C(=O)O A value given as a limit tells only on which side of the number the result lay.

A short description of test [1]: Mouse Hot Plate Assay (analgesia). Type of test: in vivo, mice. The note with it: for ED50: dose producing analgesia in 50% of animals, hot plate 48° C., parentheses = 95% fiducial limits; for ED50 / Duration of Action: intrathecal; for Duration of Action: duration of the analgesic effect; for Onset of Action: time to peak analgesic activity following intrathecal injection. As for the experimental part: Analgesic Utility: The Mouse Hot Plate Assay was used to determine the activity of compounds of the invention as analgesics. The compound vehicles were as described above in the Scratching Assay.
Mouse Hot Plate Assay: The hot plate assay was used to assess analgesic potency, see Vaught and Chipkin, Eur. Journal. Pharmacol. 79, 167-173 (1982) and references therein. In these experiments the hot plate apparatus (Technilab Instruments, Inc.) was maintained at 48±0.05° C. The response measure was the time interval between the animal being placed on the heated surface and licking or shaking its hindpaw. Test drug was administered intrathecally and at appropriate times following drug administration the reaction times redetermined. A reaction time for drug-treated animals greater than three standard deviations from the mean of the control reaction times for all the animals in the group was the criterion for an analgesic response. At least three doses with 10 animals per dose were used to construct dose response curves.
A general note: In hot-plate and tail-flick tests a longer latency is read as antinociception.

In test [2] the test system is substance P-induced scratching. Type of test: in vivo, Male, Swiss CD-1 mice. Details: ID50 vs SP: unit not given beside the values. As to conditions: for % inhibition of SP-induced scratching: mouse, in vivo; for ID50 vs SP: dose of antagonist inhibiting SP-induced scratching by 50%, intrathecal, injected simultaneously with SD90 dose of SP, parentheses = 95% fiducial limits. From the text: (§1) The tachykinin-induced mouse scratching assay was used to evaluate the ability of the Neurokinin B analogs of the invention to act in vivo as antagonists. This test was chosen since scratching is well documented to be a reproducible, characteristic central effect of tachykinin agonists which can be blocked by tachykinin antagonists, see Hylden and Wilcox, Brain Res. 217: 212 (1981); Piercey et al., Science 214: 1361, (1981); Vaught et al., Eur. Journal Pharmacol. 103: 355, (1984).
(§2) Male, Swiss CD-1 mice (Charles River, Kingston, NY) weighing between 18-24 g were used in all experiments. They were allowed food and water ad libitum and each animal was used only once. Substance P, Neurokinin B, bombesin (a compound which induces scratching but is not a tachykinin), [D-Pro^2,D-Trp^7,9 ]-Substance P(1-11) and the product of Example 1 were dissolved in 0.01N acetic acid. The products of Examples 2, 3 and 4 were dissolved in 0.1N NaOH; DMSO and H2 O (1:1:4.7 v/v). These vehicles, injected intrathecally to mice, produced no overt behavioral effects.
To determine the activity of substance P, Neurokinin B and bombesin, these agonists were injected intrathecally (max. volume […]) according to the method of Hylden et al. described in Eur. Journal Pharmacol. 67: 313 (1980). Following the intrathecal injection of agonist, the animals were placed into individual plexiglass observation chambers and observed for five min for the occurrence of the characteristic reciprocal hind-limb scratching response (caudallyn directed scratching of the body interchangeably by the hind limbs). Animals were scored as either responders or non-responders. In order to assess the ability and specificity of the Neurokinin B analogs to block the scratching produced by substance P, Neurokinin B and bombesin, varying doses of the antagonists were injected simultaneously with that dose of agonist causing 90% of the animals to scratch. The ID50 (that dose of antagonist which inhibits scratching produced by an agonist by 50%) was then calculated by probit analysis. In some instances, the percent inhibitions of scratching for a given dose of agonist was compared to control values by the Fishers Exact Test. The following results were obtained in the Scratching Assay: […]

In test [3] the test system is Neurokinin B-induced scratching. Briefly: Tachykinin-induced mouse scratching assay: antagonism of Neurokinin B-induced scratching. The test is classed as in vivo, Male, Swiss CD-1 mice. The arrangement: unit not given beside the values. As to conditions: dose of antagonist inhibiting NK-induced scratching by 50%; intrathecal, injected simultaneously with SD90 dose of NK; parentheses = 95% fiducial limits. From the text:
The tachykinin-induced mouse scratching assay was used to evaluate the ability of the Neurokinin B analogs of the invention to act in vivo as antagonists.
Male, Swiss CD-1 mice (Charles River, Kingston, NY) weighing between 18-24 g were used in all experiments. They were allowed food and water ad libitum and each animal was used only once.
Following the intrathecal injection of agonist, the animals were placed into individual plexiglass observation chambers and observed for five min for the occurrence of the characteristic reciprocal hind-limb scratching response (caudallyn directed scratching of the body interchangeably by the hind limbs). Animals were scored as either responders or non-responders. In order to assess the ability and specificity of the Neurokinin B analogs to block the scratching produced by substance P, Neurokinin B and bombesin, varying doses of the antagonists were injected simultaneously with that dose of agonist causing 90% of the animals to scratch. […] In some instances, the percent inhibitions of scratching for a given dose of agonist was compared to control values by the Fishers Exact Test.

The subject of test [4] is bombesin-induced scratching. Type of test: in vivo, Male, Swiss CD-1 mice. As to conditions: % inhibition of scratching at 20 μg antagonist, intrathecal.
Source text: as §1, §2
To determine the activity of substance P, Neurokinin B and bombesin, these agonists were injected intrathecally (max. volume […]) according to the method of Hylden et al. described in Eur. Journal Pharmacol. 67: 313 (1980). […] Animals were scored as either responders or non-responders. […]

`CCCC[C@H](NC(=O)[C@H](CC(C)C)NC(=O)[C@@H](Cc1c[nH]c2ccccc12)NC(=O)[C@@H](NC(=O)[C@@H](Cc1c[nH]c2ccccc12)NC(=O)[C@H](Cc1ccccc1)NC(=O)[C@@H](CC(=O)O)NC(=O)[C@H](Cc1c[nH]cn1)NC(=O)[C@H]1CCCN1C(=O)[C@H](N)CC(=O)O)C(C)C)C(N)=O` [Example 3, D-Asp^1 -D-Pro^2 -His^3 -D-Asp^4 -Phe^5 -D-Trp^6 -Val^7 -D-Trp^8 -Leu^9 -Nle^10 -NH2] (H-[dD][dP]H[dD]F[dW]V[dW]L[Nle]-NH2): in test [1], the ED50 is recorded as 10.4(7.7-13.2) μg, the “Duration of Action” value is not above 90 min and the “Onset of Action” value came to 20 min. The “% inhibition of SP-induced scratching” value in test [2] is 70%.

With `CCCC[C@H](NC(=O)[C@H](CC(C)C)NC(=O)[C@@H](Cc1c[nH]c2ccccc12)NC(=O)[C@@H](NC(=O)[C@@H](Cc1c[nH]c2ccccc12)NC(=O)[C@H](Cc1ccccc1)NC(=O)[C@@H](CC(=O)O)NC(=O)[C@H](Cc1c[nH]cn1)NC(=O)[C@H]1CCCN1C(=O)[C@@H](N)CC(=O)O)C(C)C)C(N)=O` [Example 4, Asp^1 -D-Pro^2 -His^3 -D-Asp^4 -Phe^5 -D-Trp^6 -Val^7 -D-Trp^8 -Leu^9 -Nle^10 -NH2] (H-D[dP]H[dD]F[dW]V[dW]L[Nle]-NH2), in test [1], the ED50 is on record as 10.0(5.5-18.2) μg, the “Duration of Action” value is not above 60 min and the “Onset of Action” value stood at 20 min. In addition, in test [2], the “% inhibition of SP-induced scratching” value came out at 50%.

Turning to “[D-Pro^2,D-Trp^7,9 ]-Substance P(1-11) [[D-Pro^2,D-TrP^7,9]-SP(1-11), reference compound]”, in test [3], the “ID50 vs. NK” value is recorded as 2.6(0.8-4.8). In test [1], the ED50 was 5.5(3.2-6.8) μg, the “Duration of Action” value is listed as not above 15 min and the “Onset of Action” value is 5 min. In test [4], the “% Inhibition of Bombesin” value stood at 20%. Moreover, in test [2], the “ID50 vs SP” value is 4.6(2.9-6.9).

`CCCC[C@H](NC(=O)[C@H](CC(C)C)NC(=O)[C@@H](Cc1c[nH]c2ccccc12)NC(=O)[C@@H](NC(=O)[C@@H](Cc1c[nH]c2ccccc12)NC(=O)[C@H](Cc1ccccc1)NC(=O)[C@H](CC(=O)O)NC(=O)[C@H](Cc1c[nH]cn1)NC(=O)[C@H]1CCCN1C(=O)[C@@H](N)CC(=O)O)C(C)C)C(N)=O` [Example 1, Asp^1 -D-Pro^2 -His^3 -Asp^4 -Phe^5 -D-Trp^6 -Val^7 -D-Trp^8 -Leu^9 -Nle^10 -NH2] (H-D[dP]HDF[dW]V[dW]L[Nle]-NH2): the “ID50 vs. NK” value in test [3] is recorded as 0.6(0.3-1.2). In test [1], the ED50 is given as 4.6(3.0-6.4) μg, the “Duration of Action” value was not below 90 min and the “Onset of Action” value is on record as 20 min. In addition, the “ID50 vs SP” value in test [2] is 3.4(2.3-5.2).

Consider `CCCC[C@H](NC(=O)[C@H](CC(C)C)NC(=O)[C@@H](Cc1c[nH]c2ccccc12)NC(=O)[C@@H](NC(=O)[C@@H](Cc1c[nH]c2ccccc12)NC(=O)[C@H](Cc1ccccc1)NC(=O)[C@H](CC(=O)O)NC(=O)[C@H](Cc1c[nH]cn1)NC(=O)[C@H]1CCCN1C(=O)[C@H](N)CC(=O)O)C(C)C)C(N)=O` [Example 2, D-Asp^1 -D-Pro^2 -His^3 -Asp^4 -Phe^5 -D-Trp^6 -Val^7 -D-Trp^8 -Leu^9 -Nle^10 -NH2] (H-[dD][dP]HDF[dW]V[dW]L[Nle]-NH2), for which, in test [1], the ED50 was 7.5(5.9-9.5) μg, the “Duration of Action” value is 120 min and the “Onset of Action” value is given as 20 min. Also, the “% inhibition of SP-induced scratching” value in test [2] is recorded as 90%.
